According to US10844077B2, “Thiazolyl-containing compounds for treating proliferative diseases” (Dana-Farber Cancer Institute, Inc., priority 2014, dated 2020):
Where “and” joins values, the source holds several entries; their conditions need not be identical. Equal entries are not always repeated. Where two headings read alike, the source gives them in different places.

What was measured:
Type in all cases: cell-based
[1] = biological target: kinases in BCWM.1 cells (Homo sapiens, UniProt Q6PHR2); conditions: ULK3; Lys2; 1 μM, 90 min; GF
Procedure: (§1) The cells were harvested and lysed. […] Bound kinases were identified and quantitated by ACTIVX as described in Patricelli et al., Biochemistry, 2007, 46(2): 350-358. The compounds were tested in duplicates against duplicate or quadruplicate control samples.

[2] = biological target: kinases in BCWM.1 cells (Homo sapiens, UniProt Q58A45); conditions: PAN3; Protein Kinase Domain; 1 μM, 90 min; GF
Procedure: as §1

[3] = biological target: kinases in BCWM.1 cells (Homo sapiens, UniProt Q9BYT3); conditions: STK33; Lys2; 1 μM, 90 min; GF
Procedure: as §1

[4] = biological target: kinases in BCWM.1 cells (Homo sapiens, UniProt O95747); conditions: OSR1; Lys2; 1 μM, 90 min; GF
Procedure: as §1

[5] = biological target: kinases in BCWM.1 cells (Homo sapiens, UniProt P30291); conditions: Wee1; Lys2; 1 μM, 90 min; GF
Procedure: as §1

[6] = biological target: kinases in BCWM.1 cells (Homo sapiens, UniProt Q9NYL2); conditions: ZAK; Lys1; 1 μM, 90 min; GF
Procedure: as §1

[7] = biological target: kinases in BCWM.1 cells (Homo sapiens, UniProt Q8TBX8); conditions: PIP4K2C; ATP; 1 μM, 90 min; GF
Procedure: as §1

[8] = biological target: kinases in BCWM.1 cells (Homo sapiens, UniProt P51955); conditions: NEK2; Lys2; 1 μM, 90 min; GF
Procedure: as §1

[9] = biological target: kinases in BCWM.1 cells (Homo sapiens, UniProt P48736); conditions: PIK3CG; ATP; 1 μM, 90 min; GF
Procedure: as §1

[10] = biological target: kinases in BCWM.1 cells (Homo sapiens, UniProt Q8TD19); conditions: NEK9; Lys2; 1 μM, 90 min; GF
Procedure: as §1

[11] = biological target: kinases in BCWM.1 cells (Homo sapiens, UniProt Q15418); conditions: Lys2, 1 μM, 90 min, GF
Procedure: as §1

[12] = biological target: kinases in BCWM.1 cells (Homo sapiens, UniProt Q16539); conditions: p38a, 1 μM, 90 min, GF
Procedure: as §1

[13] = biological target: kinases in BCWM.1 cells (Homo sapiens, UniProt Q96S44); conditions: PRPK; ATP Loop; 1 μM, 90 min; GF
Procedure: as §1

[14] = biological target: kinases in BCWM.1 cells (Homo sapiens, UniProt Q13523); conditions: PRP4; Lys2; 1 μM, 90 min; GF
Procedure: as §1

[15] = biological target: kinases in BCWM.1 cells (Homo sapiens, UniProt Q9Y572); conditions: RIPK3; Lys2; 1 μM, 90 min; GF
Procedure: as §1

[16] = biological target: kinases in BCWM.1 cells (Homo sapiens, UniProt Q9BZL6); conditions: PKD2; Lys1; 1 μM, 90 min; GF
Procedure: as §1

[17] = biological target: kinases in BCWM.1 cells (Homo sapiens, UniProt Q9NRH2); conditions: SNRK; Lys2; 1 μM, 90 min; GF
Procedure: as §1

[18] = biological target: kinases in BCWM.1 cells (Homo sapiens, UniProt Q96PY6); conditions: NEK1; Lys2; 1 μM, 90 min; GF
Procedure: as §1

[19] = biological target: kinases in BCWM.1 cells (Homo sapiens, UniProt P53350); conditions: PLK1; Lys1; 1 μM, 90 min; GF
Procedure: as §1

[20] = biological target: kinases in BCWM.1 cells (Homo sapiens, UniProt Q16512); conditions: PKN1; Lys1; 1 μM, 90 min; GF
Procedure: as §1

[21] = biological target: kinases in BCWM.1 cells (Homo sapiens, UniProt O75385); conditions: ULK1; Lys2; 1 μM, 90 min; GF
Procedure: as §1

[22] = biological target: kinases in BCWM.1 cells (Homo sapiens, UniProt Q7RTN6); conditions: STLK5; Activation Loop; 1 μM, 90 min; GF
Procedure: as §1

[23] = biological target: kinases in BCWM.1 cells (Homo sapiens, UniProt Q14289); conditions: PYK2; Activation Loop; 1 μM, 90 min; GF
Procedure: as §1

[24] = biological target: kinases in BCWM.1 cells (Homo sapiens, UniProt P42338); conditions: PIK3CB; ATP; 1 μM, 90 min; GF
Procedure: as §1

[25] = biological target: kinases in BCWM.1 cells (Homo sapiens, UniProt Q9Y2H1); conditions: NDR2; Lys2; 1 μM, 90 min; GF
Procedure: as §1

[26] = tested on: kinases in BCWM.1 cells; conditions: 1 μM, GF
Procedure: as §1

Chain of kinases in BCWM.1 cells (Homo sapiens, UniProt Q16539) (Q16539 2-360 limits assumed): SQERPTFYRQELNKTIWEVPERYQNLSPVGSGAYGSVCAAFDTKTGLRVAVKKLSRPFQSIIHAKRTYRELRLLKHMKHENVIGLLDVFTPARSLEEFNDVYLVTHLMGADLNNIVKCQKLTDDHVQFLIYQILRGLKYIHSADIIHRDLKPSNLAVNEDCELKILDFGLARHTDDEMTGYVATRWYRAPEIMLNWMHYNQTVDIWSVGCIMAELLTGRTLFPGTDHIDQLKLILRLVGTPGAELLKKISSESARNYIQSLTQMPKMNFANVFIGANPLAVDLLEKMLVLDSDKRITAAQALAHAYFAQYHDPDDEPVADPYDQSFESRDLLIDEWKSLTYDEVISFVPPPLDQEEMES
Chain of kinases in BCWM.1 cells (Homo sapiens, UniProt O95747) (O95747 2-527 limits assumed): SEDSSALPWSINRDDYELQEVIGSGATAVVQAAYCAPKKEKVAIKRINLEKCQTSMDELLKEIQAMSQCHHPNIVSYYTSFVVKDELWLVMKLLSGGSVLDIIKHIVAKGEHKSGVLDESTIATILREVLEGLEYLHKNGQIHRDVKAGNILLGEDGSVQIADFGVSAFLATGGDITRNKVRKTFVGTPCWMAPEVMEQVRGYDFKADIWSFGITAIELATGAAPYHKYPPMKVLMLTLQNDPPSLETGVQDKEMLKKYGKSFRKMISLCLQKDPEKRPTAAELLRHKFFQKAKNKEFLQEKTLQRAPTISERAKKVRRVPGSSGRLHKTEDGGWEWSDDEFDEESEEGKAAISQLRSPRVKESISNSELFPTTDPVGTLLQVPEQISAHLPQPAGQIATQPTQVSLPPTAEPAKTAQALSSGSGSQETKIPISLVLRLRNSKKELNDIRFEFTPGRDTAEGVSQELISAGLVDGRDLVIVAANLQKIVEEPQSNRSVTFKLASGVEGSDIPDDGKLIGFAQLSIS
Chain of kinases in BCWM.1 cells (Homo sapiens, UniProt Q16512) (Q16512 2-942 limits assumed): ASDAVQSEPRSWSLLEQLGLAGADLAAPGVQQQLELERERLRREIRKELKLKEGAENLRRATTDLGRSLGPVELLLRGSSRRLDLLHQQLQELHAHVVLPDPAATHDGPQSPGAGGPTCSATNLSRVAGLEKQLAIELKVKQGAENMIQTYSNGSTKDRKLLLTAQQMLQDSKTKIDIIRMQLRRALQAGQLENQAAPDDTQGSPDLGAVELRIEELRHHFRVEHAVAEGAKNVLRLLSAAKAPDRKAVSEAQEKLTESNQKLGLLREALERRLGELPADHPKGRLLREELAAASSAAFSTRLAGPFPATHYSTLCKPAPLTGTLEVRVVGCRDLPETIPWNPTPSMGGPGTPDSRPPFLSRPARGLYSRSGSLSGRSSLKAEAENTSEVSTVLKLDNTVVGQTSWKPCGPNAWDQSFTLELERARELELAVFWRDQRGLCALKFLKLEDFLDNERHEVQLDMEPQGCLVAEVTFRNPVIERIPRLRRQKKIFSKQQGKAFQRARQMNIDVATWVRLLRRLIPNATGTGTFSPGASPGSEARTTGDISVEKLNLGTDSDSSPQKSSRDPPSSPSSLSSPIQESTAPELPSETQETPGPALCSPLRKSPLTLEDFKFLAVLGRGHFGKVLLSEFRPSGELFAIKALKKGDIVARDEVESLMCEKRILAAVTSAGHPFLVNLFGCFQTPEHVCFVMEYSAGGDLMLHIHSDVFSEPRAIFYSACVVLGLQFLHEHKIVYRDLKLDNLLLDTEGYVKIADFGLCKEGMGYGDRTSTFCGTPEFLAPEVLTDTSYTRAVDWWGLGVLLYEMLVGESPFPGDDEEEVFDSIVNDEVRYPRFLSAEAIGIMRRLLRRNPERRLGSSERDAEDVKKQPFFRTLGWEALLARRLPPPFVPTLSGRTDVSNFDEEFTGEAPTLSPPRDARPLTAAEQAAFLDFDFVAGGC
Chain of kinases in BCWM.1 cells (Homo sapiens, UniProt Q13523) (Q13523 2-1007 limits assumed): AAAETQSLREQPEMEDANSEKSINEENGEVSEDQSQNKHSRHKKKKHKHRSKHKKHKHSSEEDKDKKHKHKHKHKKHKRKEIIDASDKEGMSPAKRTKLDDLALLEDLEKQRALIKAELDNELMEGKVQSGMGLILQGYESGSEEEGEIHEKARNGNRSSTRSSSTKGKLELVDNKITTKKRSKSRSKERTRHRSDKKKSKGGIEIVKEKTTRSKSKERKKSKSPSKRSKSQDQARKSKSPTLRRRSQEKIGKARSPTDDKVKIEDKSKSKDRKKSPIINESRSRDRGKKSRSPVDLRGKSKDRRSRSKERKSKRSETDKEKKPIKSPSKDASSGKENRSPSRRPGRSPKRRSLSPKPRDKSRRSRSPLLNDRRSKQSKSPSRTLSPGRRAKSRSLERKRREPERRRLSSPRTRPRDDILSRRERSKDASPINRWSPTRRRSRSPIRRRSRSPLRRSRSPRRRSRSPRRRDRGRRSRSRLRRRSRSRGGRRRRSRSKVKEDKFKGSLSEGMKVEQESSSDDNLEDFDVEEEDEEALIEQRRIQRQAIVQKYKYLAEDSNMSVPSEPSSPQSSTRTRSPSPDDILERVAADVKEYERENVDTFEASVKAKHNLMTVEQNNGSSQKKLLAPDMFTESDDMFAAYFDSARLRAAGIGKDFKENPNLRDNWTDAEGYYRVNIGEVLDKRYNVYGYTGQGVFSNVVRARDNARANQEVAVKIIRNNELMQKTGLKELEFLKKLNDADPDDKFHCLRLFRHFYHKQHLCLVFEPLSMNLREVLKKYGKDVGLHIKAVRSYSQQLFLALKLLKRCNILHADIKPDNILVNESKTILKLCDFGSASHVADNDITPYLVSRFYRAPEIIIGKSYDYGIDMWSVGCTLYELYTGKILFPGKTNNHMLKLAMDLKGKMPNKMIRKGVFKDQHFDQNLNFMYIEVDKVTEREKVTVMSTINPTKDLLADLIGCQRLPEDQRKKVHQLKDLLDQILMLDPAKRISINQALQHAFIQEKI
Chain of kinases in BCWM.1 cells (Homo sapiens, UniProt Q9Y2H1) (Q9Y2H1 2-464 limits assumed): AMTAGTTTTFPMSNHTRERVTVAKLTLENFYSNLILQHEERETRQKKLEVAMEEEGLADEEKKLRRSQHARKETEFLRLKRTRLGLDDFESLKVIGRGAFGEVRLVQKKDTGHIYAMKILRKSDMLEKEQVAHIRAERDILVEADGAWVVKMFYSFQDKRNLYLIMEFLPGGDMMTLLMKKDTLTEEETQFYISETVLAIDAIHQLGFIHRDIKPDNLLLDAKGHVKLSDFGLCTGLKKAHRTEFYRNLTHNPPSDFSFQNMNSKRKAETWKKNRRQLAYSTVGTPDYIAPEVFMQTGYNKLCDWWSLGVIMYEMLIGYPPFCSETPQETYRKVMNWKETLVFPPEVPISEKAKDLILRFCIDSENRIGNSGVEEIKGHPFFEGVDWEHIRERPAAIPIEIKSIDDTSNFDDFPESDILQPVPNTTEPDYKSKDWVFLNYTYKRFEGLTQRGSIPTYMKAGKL
Chain of kinases in BCWM.1 cells (Homo sapiens, UniProt Q8TD19) (Q8TD19 2-979 limits assumed): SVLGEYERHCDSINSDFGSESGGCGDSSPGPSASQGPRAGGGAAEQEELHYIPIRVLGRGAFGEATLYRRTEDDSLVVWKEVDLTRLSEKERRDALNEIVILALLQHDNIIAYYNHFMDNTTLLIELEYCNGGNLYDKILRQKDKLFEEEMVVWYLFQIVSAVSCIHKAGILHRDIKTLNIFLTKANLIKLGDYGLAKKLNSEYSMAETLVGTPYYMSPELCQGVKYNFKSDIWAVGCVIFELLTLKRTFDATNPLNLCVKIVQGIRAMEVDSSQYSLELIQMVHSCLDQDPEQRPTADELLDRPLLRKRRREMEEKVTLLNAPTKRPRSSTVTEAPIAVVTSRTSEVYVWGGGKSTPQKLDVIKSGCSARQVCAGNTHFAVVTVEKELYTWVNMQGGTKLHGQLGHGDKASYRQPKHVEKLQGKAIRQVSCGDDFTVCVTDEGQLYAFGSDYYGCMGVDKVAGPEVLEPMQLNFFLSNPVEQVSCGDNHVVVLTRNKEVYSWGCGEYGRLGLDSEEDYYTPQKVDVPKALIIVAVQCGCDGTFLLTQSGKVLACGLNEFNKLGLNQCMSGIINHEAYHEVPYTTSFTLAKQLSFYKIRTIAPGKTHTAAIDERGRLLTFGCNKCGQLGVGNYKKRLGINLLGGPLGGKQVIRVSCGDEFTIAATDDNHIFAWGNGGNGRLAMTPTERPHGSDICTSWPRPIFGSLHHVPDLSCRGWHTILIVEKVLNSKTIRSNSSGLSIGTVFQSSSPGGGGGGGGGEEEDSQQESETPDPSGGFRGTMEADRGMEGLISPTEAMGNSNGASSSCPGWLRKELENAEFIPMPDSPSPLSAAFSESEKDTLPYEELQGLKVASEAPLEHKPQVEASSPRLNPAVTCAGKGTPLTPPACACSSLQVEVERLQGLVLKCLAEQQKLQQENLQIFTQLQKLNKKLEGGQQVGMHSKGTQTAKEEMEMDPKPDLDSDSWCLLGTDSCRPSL
Chain of kinases in BCWM.1 cells (Homo sapiens, UniProt Q8TBX8) (Q8TBX8 2-421 limits assumed): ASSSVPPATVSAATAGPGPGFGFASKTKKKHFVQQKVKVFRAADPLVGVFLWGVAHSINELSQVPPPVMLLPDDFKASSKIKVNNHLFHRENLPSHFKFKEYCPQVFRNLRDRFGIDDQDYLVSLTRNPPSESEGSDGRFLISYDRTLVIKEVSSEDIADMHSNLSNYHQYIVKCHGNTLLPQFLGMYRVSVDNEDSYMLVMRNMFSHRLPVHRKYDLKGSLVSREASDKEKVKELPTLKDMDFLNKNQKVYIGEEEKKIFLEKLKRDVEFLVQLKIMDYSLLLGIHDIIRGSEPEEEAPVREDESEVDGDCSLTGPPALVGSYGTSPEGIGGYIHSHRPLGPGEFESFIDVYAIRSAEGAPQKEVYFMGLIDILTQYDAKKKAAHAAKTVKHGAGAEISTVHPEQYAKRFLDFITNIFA

SMILES: CCC(=O)N1CC[C@H](Nc2nccc(Nc3ncc(C(=O)Nc4c(C)cccc4C)s3)n2)C1 [Example I-9]
- % change of MS signal compared to control sample [1]: −9.6%
- % change of MS signal compared to control sample [2]: 4%
- % change of MS signal compared to control sample [3]: 16.1%
- % change of MS signal compared to control sample [4]: 13.9%
- % change of MS signal compared to control sample [5]: 8.6%
- % change of MS signal compared to control sample [6]: 12.1%
- % change of MS signal compared to control sample [7]: −3.9%
- % change of MS signal compared to control sample [8]: 4.3%
- % change of MS signal compared to control sample [9]: −9.6%
- % change of MS signal compared to control sample [10]: −12.6%
- % change of MS signal compared to control sample ([11]; RSK1 domain1): −5.1%
- % change of MS signal compared to control sample ([11]; RSK1 domain2): −4.1%
- % change of MS signal compared to control sample ([12]; Lys2): 9.8%
- % change of MS signal compared to control sample ([12]; Protein Kinase Domain): 8.7%
- % change of MS signal compared to control sample [13]: −1.2%
- % change of MS signal compared to control sample [14]: −15.7%
- % change of MS signal compared to control sample [15]: −27%
- % change of MS signal compared to control sample [16]: −4.2%
- % change of MS signal compared to control sample [17]: 30.1%
- % change of MS signal compared to control sample [18]: 4.6%
- % change of MS signal compared to control sample [19]: 9.6%
- % change of MS signal compared to control sample [20]: −0.9%
- % change of MS signal compared to control sample [21]: −1.7%
- % change of MS signal compared to control sample [22]: −9.4%
- % change of MS signal compared to control sample [23]: −0.9%
- % change of MS signal compared to control sample [24]: 18.5%
- % change of MS signal compared to control sample [25]: 2.9%
- % change of MS signal compared to control sample ([26]; ABL, ARG, Activation Loop): 46.1% and 75.4%
- % change of MS signal compared to control sample ([26]; ABL, ARG, Lys1): 40.6% and 71.8%
- % change of MS signal compared to control sample ([26]; AurA, AurB, AurC, ATP Loop): 5.5% and 2.8%
- % change of MS signal compared to control sample ([26]; CK1g1, CK1g2, CK1g3, ATP Loop): −8.2% and −4.7%
- % change of MS signal compared to control sample ([26]; FYN, SRC, YES, Activation Loop): 72.5% and 80.4%
- % change of MS signal compared to control sample ([26]; JNK1, JNK2, JNK3, Lys2): −7% and 0.5%
- % change of MS signal compared to control sample ([26]; KSR1, KSR2, Activation Loop): −14.6% and −16.2%
- % change of MS signal compared to control sample ([26]; MAP2K1, MAP2K2, Lys1): −9.2% and −1.1%
- % change of MS signal compared to control sample ([26]; MAP2K1, MAP2K2, Lys2): −6.4% and −4.5%
- % change of MS signal compared to control sample ([26]; MAP3K2, MAP3K3, Lys2): 0.7% and 6.8%
- % change of MS signal compared to control sample ([26]; MARK3, MARK4, Lys1): −10.4% and −7.1%
- % change of MS signal compared to control sample ([26]; MER, TYRO3, Activation Loop): −14.7%
- % change of MS signal compared to control sample ([26]; MST4, YSK1, Lys2, 90 min): 15.2%
- % change of MS signal compared to control sample ([26]; NEK6, NEK7, Lys2, 90 min): −0.8%
- % change of MS signal compared to control sample ([26]; PCTAIRE2, PCTAIRE3, Lys1, 90 min): −0.8%
- % change of MS signal compared to control sample ([26]; PI4KA, PI4KAP2, ATP, 90 min): 3.6%
- % change of MS signal compared to control sample ([26]; PKACa, PKCb, Lys2, 90 min): 25.3%
- % change of MS signal compared to control sample ([26]; ROCK1, ROCK2, Lys2, 90 min): 1.7%
- % change of MS signal compared to control sample ([26]; RSK1 domain1, RSK2 domain1, RSK3 domain1, Lys2, 90 min): −6.1%
- % change of MS signal compared to control sample ([26]; SRPK1, SRPK2, Lys1, 90 min): 2.5%
- % change of MS signal compared to control sample ([26]; TAO1, TAO3, Lys2, 90 min): 9.3%
- % change of MS signal compared to control sample ([26]; Wnk1, Wnk2, Wnk3, Lys2, 90 min): 4.4%
- % change of MS signal compared to control sample ([26]; Wnk1, Wnk2, ATP Loop, 90 min): 7.6%
- % change of MS signal compared to control sample ([26]; ZC1/HGK, ZC2/TNIK, ZC3/MINK, Lys2, 90 min): 1.8%
- % change of MS signal compared to control sample ([26]; p38d, p38g, Lys2, 90 min): −27.1%
